Laboratory results published in US20210213097A1, “PEPTIDE INTERACTING WITH TOLL-LIKE RECEPTOR 2 AND THE COMPOSITION COMPRISING THE SAME” (NATIONAL TAIPEI UNIVERSITY OF TECHNOLOGY, priority 2020, published 2021).
Entries after “also recorded” stand apart in the source; their conditions may differ.

B1: Amuc_1100*: protein Amuc_1100 of Akkermansia muciniphila which does not include the transmembrane domain, SEQ ID NO.1 (protein, listed as Akkermansia muciniphila)
chain: IVNSKRSELDKKISIAAKEIKSANAAEITPSRSSNEELEKELNRYAKAVGSLETAYKPFLASSALVPTTPTAFQNELKTFRDSLISSCKKKNILITDTSSWLGFQVYSTQAPSVQAASTLGFELKAINSLVNKLAECGLSKFIKVYRPQLPIETPANNPEESDEADQAPWTPMPLEIAFQGDRESVLKAMNAITGMQDYLFTVNSIRIRNERMMPPPIANPAAAKPAAAQPATGAASLTPADEAAAPAAPAIQQVIKPYMGKEQVFVQVSLNLVHFNQPKAQEPSED

What was measured:
zebra fish [1] = assay: Zebra fish fed 6 times per day (autofat animal model), Example 5: body weight and glucose; type: in vivo; conditions: Example 5, normal diet 6 times per day; for level of glucose: Day 13, FIG. 8 lower panel; for body weight at end of experimentation (Day 13) compared to the original level and the GST group: FIG. 8
Experimental: Zebra fish was bred in 25° C. water (pH 6.5-7.5, conductivity 250-750 S·m^−1, NH3<0.25 ppm, NO2<0.25 ppm, NO3<0.5 ppm) and was fed with normal diet bid. (brine shrimp). Each group of experimentation comprises 10 zebra fish (n=10). The gavage feeding of Zebra fish follows the protocol disclosed in Collymore et al. (Journal of Visualized Experiment (2013)). During 13 days of experimentation, the zebra fish were fed once a day with the peptide fragments as disclosed herein in a 1× dose of 0.03 μg/day/fish. The weight of zebra fish was measured respectively on day 0, 1, 3, 6, 9, 12 and 13. In the present example, five groups of zebra fish were administered with the peptides as disclosed herein: The material and method employed in the present example is similar to that of Example 3, which is not repeated herein, except the following difference. In the present example, Zebra fish was bred and fed with normal diet (brine shrimp) 6 times per day and also with the peptide as disclosed herein once per day, to induce an autofat animal model. In the present example, five groups of zebra fish were administered with the peptides as disclosed herein: […]

human TLR2 = biological target: T1, human TLR2 (Homo sapiens, UniProt O60603); assay: TLR induction screening in recombinant HEK-293 with NF-KB driven SEAP reporter; type: cell-based; conditions: final concentration 10 μg/ml; recombinant HEK-293 overexpressing human TLR; FIG. 1A
T1 construct: host or cells: recombinant HEK-293
T1 sequence (O60603 21-784): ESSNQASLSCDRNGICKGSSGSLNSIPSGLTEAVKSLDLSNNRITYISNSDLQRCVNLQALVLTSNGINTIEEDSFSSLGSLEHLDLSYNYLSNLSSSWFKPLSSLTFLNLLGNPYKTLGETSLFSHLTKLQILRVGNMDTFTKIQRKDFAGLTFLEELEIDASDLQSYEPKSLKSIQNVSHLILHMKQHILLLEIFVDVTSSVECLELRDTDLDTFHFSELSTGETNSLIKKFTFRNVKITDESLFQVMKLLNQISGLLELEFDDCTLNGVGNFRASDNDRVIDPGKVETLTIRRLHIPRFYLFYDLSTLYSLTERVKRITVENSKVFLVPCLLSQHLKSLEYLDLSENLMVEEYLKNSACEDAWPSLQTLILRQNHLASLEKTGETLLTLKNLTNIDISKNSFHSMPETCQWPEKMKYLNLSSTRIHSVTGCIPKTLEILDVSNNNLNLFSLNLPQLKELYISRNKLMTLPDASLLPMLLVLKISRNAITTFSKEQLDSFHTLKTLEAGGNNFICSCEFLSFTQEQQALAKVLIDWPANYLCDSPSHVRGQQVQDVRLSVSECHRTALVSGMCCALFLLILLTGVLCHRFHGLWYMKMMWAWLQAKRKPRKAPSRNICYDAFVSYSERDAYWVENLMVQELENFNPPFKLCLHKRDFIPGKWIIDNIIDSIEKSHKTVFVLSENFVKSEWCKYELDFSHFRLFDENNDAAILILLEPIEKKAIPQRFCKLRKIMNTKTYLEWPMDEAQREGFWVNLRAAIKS
Experimental: Human Embryonic Kidney Cells 293 (HEK-293) were treated with the peptide fragments as disclosed herein.
Samples and controls are tested in duplicate on recombinant HEK-293 cell lines. These cell lines functionally overexpress human TLR as well as a reporter gene which is a secreted alkaline phosphatase (SEAP). The production of this reporter gene is driven by a NF-KB inducible promoter. The level of activation is given as optical density values (OD).
Samples in 100 μg/ml were diluted to a final concentration of 10 μg/ml in the reaction volume. Sample and controls are tested in duplicated wells. BSA is used as negative control.
SEAP reporter is detected as OD value. OD value is subtracted by average non-induced (NI) value. The NI subtracted duplicates are averaged and presented in a histogram. The reagents and materials employed in the instant examples were provided by Invivogen.

zebra fish [2] = assay: Treatment of obesity in zebra fish, Example 3: body weight and glucose; type: in vivo; conditions: 0.03 μg/day/fish
Source text: Zebra fish has been for a long time used as a model of obesity in many reports (Hasumura et al. Nutrition & Metabolism (2012); […] et al. Nutrition & Metabolism (2011); Oka et al. BMC Physiology (2010); Shimada et al. Nutrition & Metabolism (2015); Meguro et al. Scientific Reports (2019); Montalbano et al. Endocrine (2018); Yang et al. Cancer (2019)), which is also used herein as the subject of treatment of obesity with the peptides as disclosed herein. All peptides used in the present example were purified through CHT beads to remove endotoxin. LAL assay was further conducted and it was confirmed that the residue of endotoxin was under 0.25 EU/ml. Zebra fish was bred in 25° C. water (pH 6.5-7.5, conductivity 250-750 S·m^-1, NH3<0.25 ppm, NO2<0.25 ppm, NO3<0.5 ppm) and was fed with normal diet bid. (brine shrimp). Each group of experimentation comprises 10 zebra fish (n=10). The gavage feeding of Zebra fish follows the protocol disclosed in Collymore et al. (Journal of Visualized Experiment (2013)). During 13 days of experimentation, the zebra fish were fed once a day with the peptide fragments as disclosed herein in a 1× dose of 0.03 μg/day/fish. The weight of zebra fish was measured respectively on day 0, 1, 3, 6, 9, 12 and 13. In the present example, five groups of zebra fish were administered with the peptides as disclosed herein: […]

[3] = system: gene expression of MPX, IL10, CD86, and IL4; assay: RT-qPCR of gene expression in zebra fish treated with peptide, Example 3; type: in vivo; conditions: Day 13, FIG. 4
Experimental: Y axis (-ΔΔCT) represents the difference in the threshold cycle of amplification. **: P<0.01; ****: P<0.0001. Further, the RT(reversed-transcription)-qPCR was conducted to detect the quantity of gene expression of MPX, IL10, CD86, and IL4 in the zebra fish treated with AMSS according to the present example. […] (FIG. 4)

Molecule	level of glucose (zebra fish [1])	body weight at end of experimentation (Day 13) compared to the original level and the GST group (zebra fish [1])	induction of TLR (SEAP reporter, OD) (human TLR2)	glucose detected in the serum of zebra fish (zebra fish [2]; Day 13, FIG. 3 lower panel)	reduction in body weight at end of experimentation (Day 13) (zebra fish [2]; Day 13 versus day 0, FIG. 3 upper panel)	change in body weight of zebra fish (zebra fish [2]; gavage once a day, 13 days, normal diet bid, FIG. 2)	reduction of body weight in average (zebra fish [2]; gavage once a day, end of experimentation, FIG. 2)	gene expression of IL4 [3]	gene expression of IL10 [3]	gene expression of MPX [3]
AMS5-2: fragment of Amuc_1100*, sequence GLSKFIKVYRPQL (listed as Akkermansia muciniphila)	reduced	further reduced								
AMS5: fragment of Amuc_1100*, sequence AINSLVNKLAECGLSKFIKVYRPQL (listed as Akkermansia muciniphila)			strongly and specifically activated; also recorded: capable to activate TLR2; also recorded: shows the activity for induction of TLR	did not reduce	shows statistical significance	significant reduction in body weight	approximately 20 mg	significantly reduced	significantly reduced	did not
B1	reduced	further reduced								
